“Also recorded” adds a separate entry of the source.
Target: T1, μ-opioid receptor (MOPR) (Mus musculus, UniProt P42866)
T1 construct: from tissue; host or cells: ventral tegmental area of living wild-type C57Bl6 mice (in vivo)
Assay: Contraversive rotation/locomotor testing assay after wireless intra-VTA infusion
Assay type: in vivo
Conditions: 200 pmol, wireless unilateral intra-VTA infusion, within-subject vs ACSF vehicle, wild-type mice, n=7
From the text: As a proof-of-principle within-subject in vivo pharmacology experiment, two chambers of each device were loaded with different pharmacological agents; one with the synthetic opioid peptide and MOPR agonist, [D-Ala^2, N-MePhe^4, Gly-ol]-enkephalin (DAMGO, 200 pmol, Tocris), and one with artificial cerebral spinal fluid (ACSF) as a vehicle control. In a counter-balanced design, either the DAMGO or vehicle was wirelessly delivered into the VTA of freely behaving animals over a distance of ˜1 m away from the animal (FIGS. 88, A and B).
After the mice were acclimatized to the holding facility for seven to nine days, they were anaesthetized in an induction chamber (4% Isolflurane) and placed in a stereotaxic frame (Kopf Instruments, Model 1900) where they were maintained at 1-2% isoflurane. […] For the DAMGO-induced rotation experiment, mice were implanted with the microfluidic device above the VTA (stereotaxic coordinates from bregma (mm): AP:-3.10, ML: +/−0.50, DV: −4.25). […] A standard electrode holder (KOPF 1770) was adapted to implant the microfluidic and optofluidic devices. […] The implants were secured using two bone screws (CMA, 743102) and affixed with dental cement (Lang Dental). C571Bl6 mice were allowed to recover for 5 days prior to behavioral testing.
C571Bl6 mice with microfluidic devices implanted above the VTA were placed in the center of the same arena used for the OFT and allowed to roam freely for 1 hr. Wireless infusion of vehicle or DAMGO was initiated and movements were video recorded and analyzed using Ethovision. Rotations were defined as full 360° revolutions in the path of movement.

T1 sequence (P42866 whole entry): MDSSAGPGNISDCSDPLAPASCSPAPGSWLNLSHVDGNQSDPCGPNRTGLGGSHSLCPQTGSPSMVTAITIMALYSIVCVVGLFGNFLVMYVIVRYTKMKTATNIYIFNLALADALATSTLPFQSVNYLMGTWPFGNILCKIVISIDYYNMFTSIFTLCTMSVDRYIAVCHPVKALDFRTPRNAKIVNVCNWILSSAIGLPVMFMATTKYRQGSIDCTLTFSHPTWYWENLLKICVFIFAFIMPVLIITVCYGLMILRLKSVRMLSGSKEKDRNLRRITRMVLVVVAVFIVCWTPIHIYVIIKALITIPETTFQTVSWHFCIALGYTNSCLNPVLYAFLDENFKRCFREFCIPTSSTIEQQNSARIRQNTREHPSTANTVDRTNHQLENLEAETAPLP

With `C[C@@H](NC(=O)[C@@H](N)Cc1ccc(O)cc1)C(=O)NCC(=O)N(C)[C@@H](Cc1ccccc1)C(=O)NCCO` [DAMGO, [D-Ala^2, N-MePhe^4, Gly-ol]-enkephalin] as the compound, how does the “contraversive 360° rotations” value read?
Its value is “significant increase; also recorded: stereotypical rotations contralateral to injection site”.

And the overall locomotor activity?
The overall locomotor activity was “significant increase; also recorded: robust increase in overall locomotor activity”.

— patent US11160489B2, “Wireless optofluidic systems for programmable in vivo pharmacology and optogenetics” (THE BOARD OF TRUSTEES OF THE UNIVERSITY OF ILLINOIS, priority 2015, dated 2021)
